Like-named read-outs stand apart in the source and are kept apart here.
Tests used:
[1] = tested on: HCV replicons (NS3-NS5B regions of HCV type 1b) in Huh-7 luc/neo cells; experiment: Replicon assay (Huh-Luc cells, luciferase readout); assay type: cell-based; conditions: Hepatitis C virus, Huh-7, 72 h, three days incubation, luciferase activity
Source text: It will be appreciated that it is important to distinguish between compounds that specifically interfere with HCV functions from those that exert cytotoxic or cytostatic effects in the HCV replicon model, and as a consequence cause a decrease in HCV RNA or linked reporter enzyme concentration. Assays are known in the field for the evaluation of cellular cytotoxicity based for example on the activity of mitochondrial enzymes using fluorogenic redox dyes such as resazurin. Furthermore, cellular counter screens exist for the evaluation of non-selective inhibition of linked reporter gene activity, such as firefly luciferase.
The compounds of formula (I) were examined for activity in the inhibition of HCV RNA replication in a cellular assay. […] The cellular assay was based on a bicistronic expression construct, as described by Lohmann et al. (1999) Science vol. […]
The replicon cells were plated in 384 well plates in the presence of the test and control compounds which were added in various concentrations. Following an incubation of three days, HCV replication was measured by assaying luciferase activity (using standard luciferase assay substrates and reagents and a Perkin Elmer ViewLux™ ultraHTS microplate imager). […] The inhibitory activity of the compound on luciferase activity was monitored on the Huh-Luc cells, enabling a dose-response curve for each test compound.

HCV = conditions: sustained administration; mutations D168V, D168A and/or A156S; cited from earlier work
HCV NS3/4A protease = HCV NS3/4A protease (Hepatitis C virus genotype 1a, UniProt P27958); experiment: biochemical; conditions: full-length NS3 protease 1 nM, 25 μM NS4A cofactor, competitive inhibition model; read-out: Ki (nM) Enzymatic assay
Method: [Landro, 1997 #Biochem 36 9340-9348]. […] The solutions were stored at −20° C. between measurements.

[2] = rcm bond, DCE
[3] = rcm bond; 14-membered ring; Hoveyda-Grubbs II (25 mol%); DCE; 1.46 mM; 150.0 °C

For `CCOC(=O)c1ccccc1NC(=O)O[C@@H]1C[C@H]2C(=O)N[C@]3(C(=O)NS(=O)(=O)C4CC4)C[C@H]3/C=C\CCCCN(C)C(=O)[C@@H]2C1` [Compound 26, 2-(4-Cyclopropanesulfonylaminocarbonyl-13-methyl-2,14-dioxo-3,13-diaza-tricyclo-[13.3.0.0^4,6]octadec-7-en-17-yloxycarbonylamino)-benzoic acid ethyl ester], the EC50 [1] was 0.0492 µM.
In the case of `COc1ccc2c(O[C@@H]3C[C@H]4C(=O)N[C@]5(C(=O)O)C[C@H]5/C=C\CCCCC[C@H](NC(=O)OC5CCCC5)C(=O)N4C3)cc(-c3csc(NC(C)C)n3)nc2c1` [BILN-2061], the “selection of drug escape mutants” value (HCV) is given as “selects HCV mutants which are resistant to the respective drug”.
For `CCC[C@H](NC(=O)[C@@H]1[C@H]2CCC[C@H]2CN1C(=O)[C@@H](NC(=O)[C@@H](NC(=O)c1cnccn1)C1CCCCC1)C(C)(C)C)C(=O)C(=O)NC1CC1` [VX-950], the “selection of drug escape mutants” value (HCV) is given as “selects HCV mutants which are resistant to the respective drug”.
`CN1CCCC/C=C\[C@@H]2C[C@@]2(C(=O)NS(=O)(=O)C2CC2)NC(=O)[C@@H]2C[C@@H](OC(=O)Nc3ccccc3F)C[C@H]2C1=O` [Compound 25, (2-Fluorophenyl)carbamic acid 4-cyclopropanesulfonyl-aminocarbonyl-13-methyl-2,14-dioxo-3,13-diazatricyclo[13.3.0.0^4,6]octadec-7-en-17-yl ester] showed an EC50 [1] of 8.4 µM and a Ki (HCV NS3/4A protease) of 51 nM.
For `CN1CCCCC=CC2CC2(C(=O)NS(=O)(=O)C2CC2)NC(=O)C2CC(O)CC2C1=O` (centres unmarked), the ring closure, isolated yield ([2]; 14-membered ring, Hoveyda-Grubbs II (15 mol%), 2.07 mM) was 77%.
With `CCOC(=O)C12CC1C=CCCCCCN(Cc1ccc(OC)cc1)C(=O)N1CC(O[Si](C)(C)C(C)(C)C)CC1C(=O)N2` (centres unmarked) the ring closure, isolated yield ([2]; from C=CCCCCCN(Cc1ccc(OC)cc1)C(=O)N1CC(O[Si](C)(C)C(C)(C)C)CC1C(=O)NC1(C(=O)OCC)CC1C=C, 15-membered ring, Hoveyda-Grubbs II (10 mol%), 1.6 mM) was 48%.
For `CN1CCCCC=CC2CC2(C(=O)NS(=O)(=O)C2CC2)NC(=O)C2CC(OC(=O)Nc3ccccc3N3CCCCC3)CC2C1=O` (centres unmarked), the ring closure, yield after HPLC [3] was 36%.
